One block for each molecule: values may come before it.
Test system: drug-resistant Pseudomonas aeruginosa GDMCC No: 61027 (strain C218)
Assay: Checkerboard microdilution of norharmane combined with an antibiotic (OD600 growth, MIC at 80% inhibition, FICI and ΔE evaluation)
Format: cell-based
Procedure: Preparation of bacterial solution: Pseudomonas aeruginosa GDMCC No: 61027 stored at −80° C., was thawed at room temperature, streaked on LB agar medium and cultured at 37° C. for 24 h, and then a single well-developed colony was inoculated again and cultured for 24 h at 37° C. to ensure that the strain was in the growth phase. A single colony was selected, inoculated into LB medium, and cultured at 37° C. and 200 rpm. for 16 h. The resulting solution was diluted 10000 times with fresh LB medium to obtain Pseudomonas aeruginosa GDMCC No:61027 bacterial solution whose concentration calculated by of the amount of bacterial viable count was […].
According to the checkerboard microdilution method, the norharmane mother liquor was diluted 4 times with methanol, and the concentration ranges of norharmane and an antibiotic (polymyxin B, imipenem-cilastatin sodium or levofloxacin) in combination were screened.
Methanol was used as a diluent, the preparation concentrations of norharmane were 160, 80, 40, 20, 10, 5 and 2.5 μg/mL, the preparation concentrations of polymyxin B were 31.25, 15.6, 7.8, 3.9, 1.95, 0.98 and 0.49 μg/mL; the preparation concentrations of imipenem-cilastatin sodium were 8000, 4000, 2000, 1000, 500, 250 and 125 μg/mL; the preparation concentrations of levofloxacin were 250, 125, 62.5, 31.25, 15.6, 7.8 and 3.9 μg/mL; and the preparation concentrations of ofloxacin were 2000, 1000, 500, 250, 125, 62.5, and 31.25 μg/mL.
According to FIG. 7, each antibiotic is added into a 96-well plate, and 50 μL of the antibiotic solutions were drawn and added into wells in columns 2˜8 of the %-well plate in the order of concentration from low to high, while the same amount of methanol instead of antibiotic was added into column 1. 50 μL of the norharmane solutions were drawn and added into wells in rows G˜A of the 96-well plate in the order of concentration from low to high, while no norharmane was added into wells in row H. After the 96-well plate was left to stand to evaporate methanol completely, 200 μL of the Pseudomonas aeruginosa GDMCC No: 61027 bacterial solution (2.6×10^9 CFU) were added into the wells in columns 1˜8. Therefore, the final concentrations of norharmane were 40, 20, 10, 5, 2.5, 1.25, 0.63 and 0 μg/mL; the final concentrations of norharmane were polymyxin B is 7.8, 3.9, 1.95, 0.98, 0.49, 0.24, 0.12 and 0 μg/mL; the final concentrations of imipenem-cilastatin sodium were 2000, 1000, 500, 250, 125, 62.5, 31.25 and 0 μg/mL; the final concentrations of levofloxacin were 62.5, 31.25, 15.6, 7.8, 3.9, 1.95, 0.98 and 0 μg/mL; and the final concentrations of ofloxacin were 500, 250, 125, 62.5, 31.25, 15.6, 7.8 and 0 μg/mL. 200 μL of fresh LB medium were added to column 9. Wherein, well H1 is a growth control well, containing only bacterial solution and no drugs, and column 9 is a blank control containing only LB liquid medium. The prepared 96-well plate was placed in a constant temperature incubator at 37° C. for 24 h, and then OD600 was measured with a microplate reader and the results were recorded. All experiments were repeated three times.
OD value of each well at 600 nm was measured with a microplate reader. And the percentage of the bacterial growth inhibition of each well was determined as
Loewe additivity (LA) theory assumes that the drugs applied in combination have no interaction, i.e., null reference model. FICI method is the non-parametric method of LA theory, which can be expressed as: ΣFIC=FICA+FICB=CA/MICA+CB/MICB
wherein MICA and MICB denote minimum inhibitory concentrations of two drugs A and B when used alone, respectively, and CA and CB denote concentration of drugs A and B in combination respectively while their combined effect is equal to the sum of their individual separate effects. ΣFIC value of each well with percentage of the bacterial growth inhibition >80% were calculated, and in the ΣFIC values obtained, if ΣFICmax>4, FICI=ΣFICmax; if ΣFICmax<4, FICI=ΣFICmin. […]

[1] = end point 80% growth inhibition

MIC MICB: minimum inhibitory concentration of the antibiotic when used alone [1]: 62.5 µg/mL
Molecule: C[C@H]1COc2c(N3CCN(C)CC3)c(F)cc3c(=O)c(C(=O)O)cn1c23 [Levofloxacin, levofloxacin, reference compound]
Growth percentage (levofloxacin 0.98 μg/ml alone (norharmane 0)): 91% | Growth percentage (levofloxacin 1.95 μg/ml alone (norharmane 0)): 89% | Growth percentage (levofloxacin 3.9 μg/ml alone (norharmane 0)): 85% | Growth percentage (levofloxacin 7.8 μg/ml alone (norharmane 0)): 72% | Growth percentage (levofloxacin 15.6 μg/ml alone (norharmane 0)): 42% | Growth percentage (levofloxacin 31.25 μg/ml alone (norharmane 0)): 26% | Growth percentage (levofloxacin 62.5 μg/ml alone (norharmane 0)): 5%

Molecule: c1ccc2c(c1)[nH]c1cnccc12 [Norharmane, norharmane]
Growth percentage (norharmane 0.63 μg/ml alone, imipenem-cilastatin sodium 0 (Table 2)): 94% | Growth percentage (norharmane 0.63 μg/ml alone, levofloxacin 0 (Table 3)): 98% | Growth percentage (norharmane 0.63 μg/ml alone, ofloxacin 0 (Table 4)): 99% | Growth percentage (norharmane 0.63 μg/ml alone, polymyxin B 0 (Table 1)): 99% | Growth percentage (norharmane 1.25 μg/ml alone, imipenem-cilastatin sodium 0 (Table 2)): 92% | Growth percentage (norharmane 1.25 μg/ml alone, levofloxacin 0 (Table 3)): 94% | Growth percentage (norharmane 1.25 μg/ml alone, ofloxacin 0 (Table 4)): 98% | Growth percentage (norharmane 1.25 μg/ml alone, polymyxin B 0 (Table 1)): 96% | Growth percentage (norharmane 2.5 μg/ml alone, imipenem-cilastatin sodium 0 (Table 2)): 87% | Growth percentage (norharmane 2.5 μg/ml alone, levofloxacin 0 (Table 3)): 94% | Growth percentage (norharmane 2.5 μg/ml alone, ofloxacin 0 (Table 4)): 97% | Growth percentage (norharmane 2.5 μg/ml alone, polymyxin B 0 (Table 1)): 96% | Growth percentage (norharmane 5 μg/ml alone, imipenem-cilastatin sodium 0 (Table 2)): 87% | Growth percentage (norharmane 5 μg/ml alone, levofloxacin 0 (Table 3)): 92% | Growth percentage (norharmane 5 μg/ml alone, ofloxacin 0 (Table 4)): 95% | Growth percentage (norharmane 5 μg/ml alone, polymyxin B 0 (Table 1)): 95% | Growth percentage (norharmane 10 μg/ml alone, imipenem-cilastatin sodium 0 (Table 2)): 86% | Growth percentage (norharmane 10 μg/ml alone, levofloxacin 0 (Table 3)): 98% | Growth percentage (norharmane 10 μg/ml alone, ofloxacin 0 (Table 4)): 94% | Growth percentage (norharmane 10 μg/ml alone, polymyxin B 0 (Table 1)): 95% | Growth percentage (norharmane 20 μg/ml alone, imipenem-cilastatin sodium 0 (Table 2)): 85% | Growth percentage (norharmane 20 μg/ml alone, levofloxacin 0 (Table 3)): 95% | Growth percentage (norharmane 20 μg/ml alone, ofloxacin 0 (Table 4)): 88% | Growth percentage (norharmane 20 μg/ml alone, polymyxin B 0 (Table 1)): 95% | Growth percentage (norharmane 40 μg/ml alone, imipenem-cilastatin sodium 0 (Table 2)): 82% | Growth percentage (norharmane 40 μg/ml alone, levofloxacin 0 (Table 3)): 93% | Growth percentage (norharmane 40 μg/ml alone, ofloxacin 0 (Table 4)): 81% | Growth percentage (norharmane 40 μg/ml alone, polymyxin B 0 (Table 1)): 84% | MIC MICA: minimum inhibitory concentration of a drug used alone (norharmane used alone, end point 80% growth inhibition): 40 µg/mL

MIC MICB: minimum inhibitory concentration of the antibiotic when used alone [1]: 500 µg/mL
Molecule: CC1COc2c(N3CCN(C)CC3)c(F)cc3c(=O)c(C(=O)O)cn1c23 (centres unmarked) [Ofloxacin, ofloxacin, reference compound]
Growth percentage (ofloxacin 7.8 μg/ml alone (norharmane 0)): 83% | Growth percentage (ofloxacin 15.6 μg/ml alone (norharmane 0)): 79% | Growth percentage (ofloxacin 31.25 μg/ml alone (norharmane 0)): 73% | Growth percentage (ofloxacin 62.5 μg/ml alone (norharmane 0)): 67% | Growth percentage (ofloxacin 125 μg/ml alone (norharmane 0)): 54% | Growth percentage (ofloxacin 250 μg/ml alone (norharmane 0)): 36% | Growth percentage (ofloxacin 500 μg/ml alone (norharmane 0)): 6%

Molecule: polymyxin B [reference compound]
MIC MICB: minimum inhibitory concentration of the antibiotic when used alone [1]: 7.8 µg/mL | Growth percentage (polymyxin B 0.12 μg/ml alone (norharmane 0)): 100% | Growth percentage (polymyxin B 0.24 μg/ml alone (norharmane 0)): 98% | Growth percentage (polymyxin B 0.49 μg/ml alone (norharmane 0)): 98% | Growth percentage (polymyxin B 0.98 μg/ml alone (norharmane 0)): 90% | Growth percentage (polymyxin B 1.95 μg/ml alone (norharmane 0)): 52% | Growth percentage (polymyxin B 3.9 μg/ml alone (norharmane 0)): 29% | Growth percentage (polymyxin B 7.8 μg/ml alone (norharmane 0)): 5%

Source: patent publication US12453720B2, “Application of norharmane in improving antibacterial activity of antibiotics” (ZHEJIANG UNIVERSITY OF TECHNOLOGY, priority 2020, dated 2025)
